Measurements as given in PubChem BioAssay (NCI).
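Five concentrations, 48 hours, 96-well plates. GI50 marks 50% less growth. The concentration for full growth arrest is given as TGI.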

Tests used:
Test in all cases: NCI-60 cell line screen, 48 h; in the data active means GI50 below about 0.43 µM; inactive means the rest
[1] = system: NCI-H23 lung
[2] = system: NCI-H460 lung
[3] = system: NCI-H522 lung
[4] = system: NCI/ADR-RES ovarian
[5] = system: OVCAR-3 ovarian
[6] = system: OVCAR-4 ovarian
[7] = system: OVCAR-5 ovarian
[8] = system: OVCAR-8 ovarian
[9] = system: PC-3 prostate
[10] = system: RPMI-8226 leukemia
[11] = system: SF-268 CNS
[12] = system: SF-295 CNS
[13] = system: SF-539 CNS
[14] = system: SK-MEL-28 melanoma
[15] = system: SK-MEL-5 melanoma
[16] = system: SK-OV-3 ovarian
[17] = system: SN12C renal
[18] = system: SNB-19 CNS
[19] = system: SNB-75 CNS
[20] = system: SR leukemia
[21] = system: SW-620 colon
[22] = system: T-47D breast
[23] = system: TK-10 renal
[24] = system: U251 CNS
[25] = system: UACC-257 melanoma
[26] = system: UACC-62 melanoma
[27] = system: UO-31 renal

CC(=O)N1CCN(C2=Nc3ccccc3CO2)C1=S
48.4 µM: TGI [15]
inactive: GI50 [1] > 100 µM | GI50 [2] 70.5 µM | GI50 [3] 49.2 µM | GI50 [4] > 100 µM | GI50 [5] 51.6 µM | GI50 [6] 65.3 µM | GI50 [7] 85.8 µM | GI50 [8] > 100 µM | GI50 [9] 87.6 µM | GI50 [10] 41.4 µM | GI50 [11] > 100 µM | GI50 [12] 43.1 µM | GI50 [13] > 100 µM | GI50 [14] > 100 µM | GI50 [15] 20.4 µM | GI50 [16] > 100 µM | GI50 [17] > 100 µM | GI50 [18] > 100 µM | GI50 [19] 40.1 µM | GI50 [20] 29.3 µM | GI50 [21] 92.5 µM | GI50 [22] 33 µM | GI50 [23] > 100 µM | GI50 [24] > 100 µM | GI50 [25] > 100 µM | GI50 [26] 83 µM | GI50 [27] > 100 µM
> 100 µM: TGI [1] | TGI [2] | TGI [3] | TGI [4] | TGI [5] | TGI [6] | TGI [7] | TGI [8] | TGI [9] | TGI [10] | TGI [11] | TGI [12] | TGI [13] | TGI [14] | TGI [16] | TGI [17] | TGI [18] | TGI [19] | TGI [21] | TGI [22] | TGI [23] | TGI [24] | TGI [25] | TGI [26] | TGI [27]
68.4 µM: TGI [20]
